According to patent US20260150841A1, “PYRIDINE COMPOUNDS FOR COMBATTING DIHYDROOROTATE-DEHYDROGENASE INHIBITOR-RESISTANT PHYTOPATHOGENIC FUNGI” (priority 2022, published 2026):
Converted amounts (≈) assume the structure as drawn. Like-named read-outs stand apart in the source and are kept apart here.

Legend:
Type in all cases: cell-based
[1] = system: Botrytis cinerea (sensitive, wild-type); experiment: Activity against Botrytis cinerea in the microtiter test, wild type; settings: turbidity at 620 nm after 7 days; for IC50: 168 h, read-out: Absolute IC50, wild type
Protocol: (§1) The active substances were formulated separately as a stock solution in dimethyl sulfoxide (DMSO) at a concentration of 10 000 ppm.
(§2) Fungal strains used: • a) Botrytis cinerea (sensitive, wild-type) • b) Various mutants of Botrytis cinerea
(§3) The spores of Botrytis cinerea were harvested with a cotton swab from an Oatmeal agar plate (50 g/l Oatmealagar (Sigma, Art.O-3506), 15 g/l agar, (Difco) and this is dipped in 3 ml of double concentrated DOB-medium (3.4 g/l YNB (Becton Dickinson), 10 g/l Ammoniumsulfat, 40 g/l Glucose, adjusted to pH 7) and the spore suspension is adjusted to a spore density of 3.2×10^4 spores/ml. The compound solutions were diluted from stock solution in (dimethylsulfoxide) DMSO in several steps with sterile deionized water before use. High test concentrations were 50 mg/L (ppm) or 31 mg/L (ppm). Compound solutions were transferred into empty microplates and filled up with an equal amount of spore suspension.
(§4) The antifungal activity was determined by measuring the turbidity of a culture in 96-well microplates in the presence of test compounds after 7 days incubation at 620 nm. A blank value for each concentration (growth media+compound, without spores) are subtracted from the spore suspension. The relative antifungal activity was calculated by comparing the effect of the test compounds with the effect of a DMSO control The results are shown in Table IV (for compounds of general formula I.A), VI (for compounds of general formula I.B), and VIII (for compounds of general formula I.C).
(§5) The absolute IC50-values (concentration of test compound resulting in 50% inhibition of fungal growth) were calculated from the resulting dose-response for each compound and strain.

[2] = system: Botrytis cinerea mutant H108P; experiment: Activity against Botrytis cinerea in the microtiter test, mutant H108P; settings: for IC50: Botrytis cinerea, MUTANTH108P, 168 h, read-out: Absolute IC50, H108P, Botrytis cinerea mutant H108P, turbidity at 620 nm after 7 days
Excerpt: as §1
(§6) Spontaneous mutants were selected by plating out B. cinerea spores (in the range of 10^7-10^8) on DOB agar plates (3.4 g/l YNB (Becton Dickinson), 10 g/l Ammoniumsulfat, 40 g/l Glucose, 20 g/l Agar), amended with different lethal concentrations of active ingredient. After 7-14 days growing colonies were transferred to DOB agar plates, amended with the same lethal concentrations of active ingredient and then further propagated on Oatmeal agar medium (50 g/l Oatmeal agar (Sigma), 15 g/l Agar (Difco) for sensitivity testing.
as §2, §3, §4
(§7) A compound showing an IC50 (MUT) above the IC50 (WT) and showing an IC50 (MUT) to IC50 (WT) ratio being in a range above 100 is considered unsuitable (“I”) as DHODH inhibitor.
as §5

[3] = system: Botrytis cinerea mutant G111E; experiment: Activity against Botrytis cinerea in the microtiter test, mutant G111E; settings: for IC50: Botrytis cinerea, MUTANTG111E, 168 h, read-out: Absolute IC50, G111E, Botrytis cinerea mutant G111E, turbidity at 620 nm after 7 days
Excerpt: as §1, §6, §2, §3, §4, §7, §5

[4] = system: Botrytis cinerea mutant G111V; experiment: Activity against Botrytis cinerea in the microtiter test, mutant G111V; settings: for IC50: Botrytis cinerea, MUTANTG111V, 168 h, read-out: Absolute IC50, G111V, Botrytis cinerea mutant G111V, turbidity at 620 nm after 7 days
Excerpt: as §1, §6, §2, §3, §4, §7, §5

[5] = system: Botrytis cinerea mutant V195F; experiment: Activity against Botrytis cinerea in the microtiter test, mutant V195F; settings: for IC50: Botrytis cinerea, MUTANTV195F, 168 h, read-out: Absolute IC50, V195F, Botrytis cinerea mutant V195F, turbidity at 620 nm after 7 days
Excerpt: as §1, §6, §2, §3, §4, §7, §5

[6] = system: Botrytis cinerea mutant Y208H; experiment: Activity against Botrytis cinerea in the microtiter test, mutant Y208H; settings: {}
Excerpt: as §1, §6, §2, §3, §4, §7, §5

[7] = system: Sclerotinia sclerotiorum (sensitive, wild-type); experiment: Activity against Sclerotinia sclerotiorum in tissue culture plate assay with mycelial plugs, wild type; settings: 168 h, % growth after 7 days at 18° C., read-out: Absolute IC50, wild type
Protocol: Fungal strains used: • a) Sclerotinia sclerotiorum (sensitive, wild-type) • b) Mutants of Sclerotinia sclerotiorum
Pure cultures are grown on DOB-agar medium, (3.4 g/l YNB (Becton Dickinson), 10 g/l Ammoniumsulfat, 40 g/l Glucose) for 5-7 days at 18° C. Mycelial plugs (6 mm diame-ter) taken from the margin of the colonies are used as inoculum for the sensitivity test. 500 μl fungicide-amended DOB medium (3.4 g/l YNB (Becton Dickinson), 10 g/l Ammoniumsulfat, 40 g/l Glucose, adjusted to pH 7) are added to each well of 24-well tissue culture plates. Each well is then inoculated with a mycelial plug, with the myce-lium surface up. Two replicate wells are used for each isolate and fungicide concentration. Growth is assed after 7 days incubation at 18° C. in the dark by estimating % growth in the well. IC50-values (concentration of test compound resulting in 50% inhibition of fungal growth) were calculated from the resulting dose-response for each compound and strain.

Which “Absolute IC50, wild type” value [1] does the source give for `Cc1cc(C2=NC3(CCC3)Oc3ccccc32)cnc1C` [drawing 125, reference compound] here?
The value was 0.11 ppm.

What about the “Absolute IC50, H108P” value ([2]; {}) of the same compound?
Its value is 0.25 ppm.

What about the “Absolute IC50, G111E” value ([3]; {}) of the same compound?
The value was 10.94 ppm.

And the “Absolute IC50, G111V” value ([4]; {})?
Its value is 0.25 ppm.

What about the “Absolute IC50, V195F” value ([5]; {}) of the same compound?
The value was 2.99 ppm.

And the “Absolute IC50, Y208H” value [6]?
The value was 1.43 ppm.

With `COc1ccc2c(c1)OC(C)(C)N=C2c1cnc2c(F)cccc2c1` [drawing 129, reference compound] as the compound, how does the IC50 ([1]; Botrytis cinerea) read?
Its IC50 is 0.01 mg/L (≈ 0.0297 µM).

And the IC50 [5]?
The IC50 was 5.28 mg/L (≈ 15.7 µM).

Which “Relative antifungal activity expressed as IC50, G111E” value ([3]; {}) does the source give for `Cc1cc(C2=NC(C)(C)Nc3ccccc32)cnc1C` [compound 39] here?
Its value is “AA AA AA AA”.

And the “Relative antifungal activity expressed as IC50, G111V” value ([4]; {})?
Its value is “AA AA AA AA”.

And the “Relative antifungal activity expressed as IC50, V195F” value ([5]; {})?
Its value is “AA AA AA AA”.

With `CCN1c2c(F)cccc2C(c2cnc3c(F)cccc3c2)=NC1(C)C` [drawing 175] as the compound, how does the IC50 [7] read?
The IC50 was 0.03 mg/L (≈ 0.0854 µM).

What does the source list for `CC1(C)N=C(c2cnc3c(F)cccc3c2)c2ccccc2OC1(C)C` [drawing 163, reference compound]?
IC50 ([1]; Botrytis cinerea): 0.001 mg/L (≈ 0.00287 µM); IC50 [5]: 2.84 mg/L (≈ 8.15 µM)

With `Cc1cc(C2=NC3(CCCC3)Oc3ccccc32)cnc1C(F)F` [Ex-24] as the compound, how does the IC50 [1] read?
Its IC50 is 0.35 mg/L (≈ 1.07 µM).

And the IC50 [2]?
The IC50 was 0.98 mg/L (≈ 2.98 µM).

And the IC50 [3]?
Its IC50 is 15.3 mg/L (≈ 46.6 µM).

And the IC50 [4]?
The IC50 was 1.31 mg/L (≈ 3.99 µM).

What about the IC50 [5] of the same compound?
The IC50 was 0.69 mg/L (≈ 2.1 µM).

Which IC50 ([1]; Botrytis cinerea) does the source give for `CC1(C)CN=C(c2cnc3ccccc3c2)c2ccccc2O1` [reference compound] here?
The IC50 was 0.001 mg/L (≈ 0.00331 µM).

What about the IC50 [5] of the same compound?
Its IC50 is 19.5 mg/L (≈ 64.6 µM).

`Cc1cc(C2=NC(C)(C)COc3ccccc32)cnc1C` [compound 51] was tested. Which “Relative antifungal activity expressed as IC50, G111V” value ([4]; {}) did it give?
The value was “AA AA AA”.

What about the “Relative antifungal activity expressed as IC50, V195F” value ([5]; {}) of the same compound?
Its value is “AA AA AA”.

How did the IC50 [7] turn out when `Cc1cc(C2=NC3(CCC(C)(C)C3)Oc3ccccc32)cnc1C` (centres unmarked) [Ex 4] was run?
The IC50 was 8.45 mg/L (≈ 26.4 µM).

How did the IC50 [7] turn out when `Cc1cc(C2=NC(C)(C)Oc3ccccc32)cnc1C` [Ex 6] was run?
Its IC50 is 0.08 mg/L (≈ 0.3 µM).

Which results are given for `CCN1c2c(F)cccc2C(c2cnc3c(F)cccc3c2)=NC1(C)C` [drawing 141, reference compound]?
IC50 [1]: 0.02 mg/L (≈ 0.0569 µM); IC50 [5]: > 31 mg/L

What does the source list for `Fc1cccc2cc(C3=NC4(CCCC4)Oc4ccccc43)cnc12` [reference compound]?
IC50 ([1]; Botrytis cinerea): 0.05 mg/L (≈ 0.15 µM); IC50 [5]: 10.9 mg/L (≈ 32.8 µM)

With `COc1ccc2c(c1)OC1(CCC1)N=C2c1cnc(C(F)F)c(C)c1` [Ex-37] as the compound, how does the IC50 [1] read?
The IC50 was 0.03 mg/L (≈ 0.0871 µM).

And the IC50 [2]?
The IC50 was 0.06 mg/L (≈ 0.174 µM).

And the IC50 [3]?
Its IC50 is 0.54 mg/L (≈ 1.57 µM).

And the IC50 [4]?
Its IC50 is 0.09 mg/L (≈ 0.261 µM).

What about the IC50 [5] of the same compound?
Its IC50 is 0.11 mg/L (≈ 0.319 µM).

What does the source list for `CC(C)(C)C1(C)N=C(c2cnc3c(F)cccc3c2)c2ccccc2O1` (centres unmarked) [drawing 117, reference compound]?
IC50 [1]: 0.07 mg/L (≈ 0.201 µM); IC50 [5]: > 31 mg/L

How did the IC50 ([1]; Botrytis cinerea) turn out when `CC1(c2ccccc2)N=C(c2cnc3c(F)cccc3c2)c2cccc(F)c2O1` (centres unmarked) [drawing 127, reference compound] was run?
The IC50 was 0.04 mg/L (≈ 0.104 µM).

And the IC50 [5]?
Its IC50 is 15.5 mg/L (≈ 40.2 µM).

How did the IC50 [7] turn out when `CN1c2c(F)cccc2C(c2cnc3c(F)cccc3c2)=NC1(C)C` was run?
The IC50 was 0.03 mg/L (≈ 0.0889 µM).

For `CC1(c2ccccc2)N=C(c2cnc3c(F)cccc3c2)c2cccc(F)c2O1` (centres unmarked) [drawing 168], which IC50 [7] is on record?
The IC50 was 0.154 mg/L (≈ 0.399 µM).

For `CC1(C)N=C(c2cnc3c(F)cccc3c2)c2ccccc2OC1(C)C` [drawing 178], which IC50 [7] is on record?
Its IC50 is 2 mg/L (≈ 5.73 µM).
